According to US12698507B2, “Methods and compositions for conferring and/or enhancing herbicide tolerance using protoporphyrinogen IX oxidase of various cyanobacteria or variant thereof” (FarmHannong Co., Ltd., priority 2019, dated 2026):
Like-named read-outs stand apart in the source and are kept apart here.

Experiments:
[1] = biological target: T1, Thermosynechococcus elongatus PKUAC-SCTE542 protoporphyrinogen IX oxidase CyPPO19, wild type, SEQ ID NO: 1 (MBP fusion) (Thermosynechococcus sichuanensis, UniProt A0A7D6JSC1); assay: PPO enzyme inhibition assay (IC50 for herbicides), CyPPO19 wild type fused to MBP; type: biochemical
T1 sequence (A0A7D6JSC1 1-467): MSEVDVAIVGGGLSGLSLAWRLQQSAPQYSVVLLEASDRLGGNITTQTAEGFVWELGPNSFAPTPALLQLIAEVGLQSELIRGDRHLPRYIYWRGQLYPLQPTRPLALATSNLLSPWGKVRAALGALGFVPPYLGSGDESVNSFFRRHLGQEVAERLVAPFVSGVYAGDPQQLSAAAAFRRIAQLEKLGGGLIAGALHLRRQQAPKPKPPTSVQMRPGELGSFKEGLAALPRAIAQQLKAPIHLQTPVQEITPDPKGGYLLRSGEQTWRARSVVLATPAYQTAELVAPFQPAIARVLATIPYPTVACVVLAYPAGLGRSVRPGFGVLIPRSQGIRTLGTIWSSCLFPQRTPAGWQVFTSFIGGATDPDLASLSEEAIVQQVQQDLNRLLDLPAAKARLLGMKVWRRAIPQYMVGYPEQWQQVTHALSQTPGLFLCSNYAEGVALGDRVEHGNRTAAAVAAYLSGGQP

[2] = test system: PPO-deficient BT3 E. coli (ΔPPO) transformed with CyPPO18 variant V165S+A167L+V305M+F360I (Thermosynechococcus vulcanus NIES-2134, SEQ ID NO: 3); assay: Herbicide tolerance test in E. coli, CyPPO18 V165S+A167L+V305M+F360I; type: cell-based; parameters: key to the marks not given beside the values; conditions: LB agar, 0 to 2,000 μM herbicide, 37° C., 16-20 hours
From the text: (§1) To enhance the PPO-inhibiting herbicide resistance of CyPPO19 and CyPPO18, PPO variant genes of the above example 2 were constructed. They were transformed to BT3 (ΔPPO) strain which is deficient of PPO activity and cultured in LB media with PPO-inhibiting herbicide, thereby examining whether growth of transformed BT3 was not inhibited.
(§2) BT3 competent cells were transformed with the pET303-CyPPO19 (wild type), pET303-CyPPO18 (wild type) plasmids, and those with a mutation(s) constructed (refer to example 2) via heat shock method, and were cultured in LB agar media containing ampicillin.
(§3) Single colony transformed with each CyPPO gene was cultured in 3 mL of LB broth (LPSS) containing ampicillin for more than 12 hours, and then was subcultured in LB broth until absorbance (OD600) reached 0.5 to 1. Then, it was diluted with LB broth to OD600=0.5. Again, the diluted solution was serially diluted 4 times by a factor of one tenth. […]
(§4) Then, 10 μL of each diluted solution of E. coli was dropped on the plate and cultured at 37° C. under dark for 16-20 hours. PPO-inhibiting herbicide resistance was evaluated with the extent of E. coli growth containing each gene was observed.
(§5) The extent of herbicide resistance was evaluated by the relative growth of variants to that of wild type, and listed in Tables 9 and 10 and FIGS. 3 to 32. […]

[3] = biological target: Thermosynechococcus vulcanus NIES-2134 protoporphyrinogen IX oxidase CyPPO18 (SEQ ID NO: 3) variant R89A (MBP fusion) (Thermosynechococcus vestitus, UniProt Q8DLV2, R89A); assay: PPO enzyme inhibition assay (IC50 for herbicides), CyPPO18 R89A fused to MBP; type: biochemical; conditions: 50 μM protoporphyrinogen IX, pH 7.5, room temperature, 30 min
Sequence of Thermosynechococcus vulcanus NIES-2134 protoporphyrinogen IX oxidase CyPPO18 (SEQ ID NO: 3) variant R89A (MBP fusion) (Q8DLV2 entry or part of it R89A): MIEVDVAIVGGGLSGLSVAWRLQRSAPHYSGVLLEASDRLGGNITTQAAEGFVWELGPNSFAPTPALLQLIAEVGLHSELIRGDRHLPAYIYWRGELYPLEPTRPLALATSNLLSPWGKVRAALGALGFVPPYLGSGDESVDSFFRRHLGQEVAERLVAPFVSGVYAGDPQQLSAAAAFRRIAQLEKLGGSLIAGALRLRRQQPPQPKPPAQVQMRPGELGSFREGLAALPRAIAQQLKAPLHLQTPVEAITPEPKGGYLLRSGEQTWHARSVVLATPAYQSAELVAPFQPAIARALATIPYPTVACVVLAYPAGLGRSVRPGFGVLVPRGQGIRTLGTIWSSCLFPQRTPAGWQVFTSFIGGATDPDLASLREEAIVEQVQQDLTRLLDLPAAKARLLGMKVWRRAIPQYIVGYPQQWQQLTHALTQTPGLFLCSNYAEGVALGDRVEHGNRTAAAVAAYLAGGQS

[4] = test system: PPO-deficient BT3 E. coli (ΔPPO) transformed with CyPPO19 variant R89A+F360M (Thermosynechococcus elongatus PKUAC-SCTE542, SEQ ID NO: 1); assay: Herbicide tolerance test in E. coli, CyPPO19 R89A+F360M; type: cell-based; conditions: LB agar, 0 to 2,000 μM herbicide, 37° C., 16-20 hours
From the text: as §1, §2, §3, §4, §5

[5] = test system: PPO-deficient BT3 E. coli (ΔPPO) transformed with CyPPO19 variant R89A+F360I (Thermosynechococcus elongatus PKUAC-SCTE542, SEQ ID NO: 1); assay: Herbicide tolerance test in E. coli, CyPPO19 R89A+F360I; type: cell-based; conditions: LB agar, 0 to 2,000 μM herbicide, 37° C., 16-20 hours
From the text: as §1, §2, §3, §4, §5

[6] = test system: PPO-deficient BT3 E. coli (ΔPPO) transformed with CyPPO18 variant V165C+A167L+F360I (Thermosynechococcus vulcanus NIES-2134, SEQ ID NO: 3); assay: Herbicide tolerance test in E. coli, CyPPO18 V165C+A167L+F360I; type: cell-based; parameters: key to the marks not given beside the values; conditions: LB agar, 0 to 2,000 μM herbicide, 37° C., 16-20 hours
From the text: as §1, §2, §3, §4, §5

[7] = biological target: Thermosynechococcus elongatus PKUAC-SCTE542 protoporphyrinogen IX oxidase CyPPO19 (SEQ ID NO: 1) variant V165C (MBP fusion) (Thermosynechococcus sichuanensis, UniProt A0A7D6JSC1, V165C); assay: PPO enzyme inhibition assay (IC50 for herbicides), CyPPO19 V165C fused to MBP; type: biochemical
Sequence of Thermosynechococcus elongatus PKUAC-SCTE542 protoporphyrinogen IX oxidase CyPPO19 (SEQ ID NO: 1) variant V165C (MBP fusion) (A0A7D6JSC1 entry or part of it V165C): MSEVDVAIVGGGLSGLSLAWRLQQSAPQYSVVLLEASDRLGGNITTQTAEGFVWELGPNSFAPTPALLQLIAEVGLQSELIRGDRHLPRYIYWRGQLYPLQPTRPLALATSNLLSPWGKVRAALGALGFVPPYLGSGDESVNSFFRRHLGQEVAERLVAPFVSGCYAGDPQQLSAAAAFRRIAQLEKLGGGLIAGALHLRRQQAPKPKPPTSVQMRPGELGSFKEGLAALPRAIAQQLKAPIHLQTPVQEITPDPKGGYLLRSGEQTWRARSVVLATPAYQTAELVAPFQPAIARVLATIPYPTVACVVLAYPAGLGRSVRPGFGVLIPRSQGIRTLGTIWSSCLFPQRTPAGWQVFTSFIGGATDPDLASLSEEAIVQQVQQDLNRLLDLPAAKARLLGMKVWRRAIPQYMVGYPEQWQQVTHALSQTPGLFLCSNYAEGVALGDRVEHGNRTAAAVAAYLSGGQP

[8] = test system: PPO-deficient BT3 E. coli (ΔPPO) transformed with CyPPO18 variant V305M+F360I (Thermosynechococcus vulcanus NIES-2134, SEQ ID NO: 3); assay: Herbicide tolerance test in E. coli, CyPPO18 V305M+F360I; type: cell-based; parameters: key to the marks not given beside the values; conditions: LB agar, 0 to 2,000 μM herbicide, 37° C., 16-20 hours
From the text: as §1, §2, §3, §4, §5

[9] = test system: PPO-deficient BT3 E. coli (ΔPPO) transformed with CyPPO19 variant V165C+F360I (Thermosynechococcus elongatus PKUAC-SCTE542, SEQ ID NO: 1); assay: Herbicide tolerance test in E. coli, CyPPO19 V165C+F360I; type: cell-based; conditions: LB agar, 0 to 2,000 μM herbicide, 37° C., 16-20 hours
From the text: as §1, §2, §3, §4, §5

[10] = test system: PPO-deficient BT3 E. coli (ΔPPO) transformed with CyPPO18 variant A167L+V305M+F360M (Thermosynechococcus vulcanus NIES-2134, SEQ ID NO: 3); type: cell-based; parameters: key to the marks not given beside the values; conditions: LB agar, 0 to 2,000 μM herbicide, 37° C., 16-20 hours
From the text: as §1, §2, §3, §4, §5

[11] = test system: PPO-deficient BT3 E. coli (ΔPPO) transformed with CyPPO19 variant V165C+F360M (Thermosynechococcus elongatus PKUAC-SCTE542, SEQ ID NO: 1); assay: Herbicide tolerance test in E. coli, CyPPO19 V165C+F360M; type: cell-based; conditions: LB agar, 0 to 2,000 μM herbicide, 37° C., 16-20 hours
From the text: as §1, §2, §3, §4, §5

[12] = test system: PPO-deficient BT3 E. coli (ΔPPO) transformed with CyPPO19 variant R89A+F360V (Thermosynechococcus elongatus PKUAC-SCTE542, SEQ ID NO: 1); assay: Herbicide tolerance test in E. coli, CyPPO19 R89A+F360V; type: cell-based; conditions: LB agar, 0 to 2,000 μM herbicide, 37° C., 16-20 hours
From the text: as §1, §2, §3, §4, §5

[13] = test system: PPO-deficient BT3 E. coli (ΔPPO) transformed with CyPPO18 variant L327T+F360M (Thermosynechococcus vulcanus NIES-2134, SEQ ID NO: 3); assay: Herbicide tolerance test in E. coli, CyPPO18 L327T+F360M; type: cell-based; parameters: key to the marks not given beside the values; conditions: LB agar, 0 to 2,000 μM herbicide, 37° C., 16-20 hours
From the text: as §1, §2, §3, §4, §5

| Compound | IC50 ([1]; CyPPO19 WT, 50 μM protoporphyrinogen IX, pH 7.5, room temperature, 30 min) [nM] | tolerance level (relative growth of variant to wild type) [2] | IC50 [3] [nM] | tolerance level (relative growth of variant to wild type) [4] | tolerance level (relative growth of variant to wild type) [5] | tolerance level (relative growth of variant to wild type) [6] | IC50 ([7]; CyPPO19 V165C, 50 μM protoporphyrinogen IX, pH 7.5, room temperature, 30 min) [µM] | tolerance level (relative growth of variant to wild type) [8] | tolerance level (relative growth of variant to wild type) [9] | tolerance level (relative growth of variant to wild type) [10] | tolerance level (relative growth of variant to wild type) [11] | tolerance level (relative growth of variant to wild type) [12] | tolerance level (relative growth of variant to wild type) [13] | IC50 [1] [nM] | IC50 [7] [µM] |
| --- | --- | --- | --- | --- | --- | --- | --- | --- | --- | --- | --- | --- | --- | --- | --- |
| Cc1nn(-c2cc(CC(Cl)C(=O)O)c(Cl)cc2F)c(=O)n1C(F)F (centres unmarked) [Carfentrazone] | 763 | ++ | 872 | + | + | ++ | 3.09 | ++ | + | ++ | + | + | ++ |  |  |
| CCOc1cc(Oc2ccc(C(F)(F)F)cc2Cl)ccc1[N+](=O)[O-] [Oxyfluorfen] |  | ++ | 491 | + | + | ++ |  | ++ | + | ++ | ++ | + | ++ | 570 | 3.21 |
